Reference: patent US9458120B2, “Phenoxypropanol derivative and pharmaceutical composition including the same” (KOREA INSTITUTE OF SCIENCE AND TECHNOLOGY, priority 2011, dated 2016)

Legend:
TREK-1 channel = target: T1, TREK-1 channel (Rattus norvegicus, UniProt Q920B6); experiment: Assay for TREK channel inhibition activity (whole cell patch clamp recording, COS7 cell transfected with GFP-rTREK-1); format: cell-based; details: COS7 cells, GFP-rTREK-1, whole-cell patch clamp; for inhibition at 10 µM: COS-7, Table 2, read-out: block % at 10 μM; for inhibition at 101 µM: COS-7, Table 3 (value ± spread), 101 μM [sic], read-out: block % at 101 μM
T1 construct: expressed in transfected cells; host or cells: COS7 (Korean Cell Line Bank), transient transfection with Effectene
T1 sequence (Q920B6 1-426): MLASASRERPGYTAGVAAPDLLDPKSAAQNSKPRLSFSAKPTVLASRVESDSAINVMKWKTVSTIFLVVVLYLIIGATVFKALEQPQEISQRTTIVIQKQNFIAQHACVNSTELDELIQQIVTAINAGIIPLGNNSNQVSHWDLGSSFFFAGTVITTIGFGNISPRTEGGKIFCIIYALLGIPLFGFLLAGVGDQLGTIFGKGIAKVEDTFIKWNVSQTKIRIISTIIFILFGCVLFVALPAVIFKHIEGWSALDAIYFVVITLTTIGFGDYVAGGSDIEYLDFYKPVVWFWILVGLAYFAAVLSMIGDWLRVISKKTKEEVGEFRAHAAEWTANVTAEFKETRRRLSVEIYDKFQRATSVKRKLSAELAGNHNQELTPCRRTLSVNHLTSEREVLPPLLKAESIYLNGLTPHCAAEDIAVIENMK
Experimental: The inhibition activity of the compound of the present invention against TREK-1 channel was measured by measuring the physiological activity by whole cell patch clamp recording.
COS7 cell (obtained from Korean Cell Line Bank (KCLB)) was transfected with GFP-rTREK-1 gene (accession number: AY727922) using an Effectene transfection reagent (Qiagen), and cultured for 24 hours in an incubator at 37° C. As a culture medium, Dulbecco's modified Eagle's medium (DMEM, GIBCO products from Invitrogen) containing 10% by weight of fetal bovine serum (FBS) and 1% by weight of penicillin/streptomycin (5000 unit/ml) was used. The cells thus prepared were adhered on a cover glass, which was placed on a chamber, and then a recording solution (150 mM NaCl, 10 mM HEPES, 10 mM KCl, 2 mM CaCl2, 5.5 mM D-Glucose, all reagents were purchased from Sigma) was applied. A glass microelectrode was filled with an intracellular solution prepared with the composition of 150 mM KCl, 5 mM EGTA, 10 mM HEPES, 0.5 mM CaCl2, 1 mM MgCl2, 4 mM Mg-ATP, and 0.3 mM Na-GTP (all reagents were purchased from Sigma), followed by whole-cell patch clamp recording. The voltage was fixed at −70 mV using a Digidata 1322A data acquisition system (Molecular Devices) and an Axopatch 200A amplifier (Axon Instruments), and the current generated by applying a voltage ramp from −100 mV to +100 mV for 1 second was measured using a Clampex9.2 program. A difference between the current values measured at +100 mV and −100 mV was defined as a current in the above experiment. The currents before and after blocker treatment were measured so as to determine the inhibition activity.
Block %=100−(current after blocker treatment/current before blocker treatment)*100

[1] = target: α1G T-type calcium channel (Homo sapiens, UniProt O43497); experiment: Assay for T-type calcium channel inhibition activity (FDSS6000 calcium imaging, KCl activation); format: cell-based; details: 75 s pre-treatment then KCl 75 mM, HEK293 cells expressing α1G T-type calcium channel and Kir2.1
α1G T-type calcium channel, sequence (O43497 whole entry): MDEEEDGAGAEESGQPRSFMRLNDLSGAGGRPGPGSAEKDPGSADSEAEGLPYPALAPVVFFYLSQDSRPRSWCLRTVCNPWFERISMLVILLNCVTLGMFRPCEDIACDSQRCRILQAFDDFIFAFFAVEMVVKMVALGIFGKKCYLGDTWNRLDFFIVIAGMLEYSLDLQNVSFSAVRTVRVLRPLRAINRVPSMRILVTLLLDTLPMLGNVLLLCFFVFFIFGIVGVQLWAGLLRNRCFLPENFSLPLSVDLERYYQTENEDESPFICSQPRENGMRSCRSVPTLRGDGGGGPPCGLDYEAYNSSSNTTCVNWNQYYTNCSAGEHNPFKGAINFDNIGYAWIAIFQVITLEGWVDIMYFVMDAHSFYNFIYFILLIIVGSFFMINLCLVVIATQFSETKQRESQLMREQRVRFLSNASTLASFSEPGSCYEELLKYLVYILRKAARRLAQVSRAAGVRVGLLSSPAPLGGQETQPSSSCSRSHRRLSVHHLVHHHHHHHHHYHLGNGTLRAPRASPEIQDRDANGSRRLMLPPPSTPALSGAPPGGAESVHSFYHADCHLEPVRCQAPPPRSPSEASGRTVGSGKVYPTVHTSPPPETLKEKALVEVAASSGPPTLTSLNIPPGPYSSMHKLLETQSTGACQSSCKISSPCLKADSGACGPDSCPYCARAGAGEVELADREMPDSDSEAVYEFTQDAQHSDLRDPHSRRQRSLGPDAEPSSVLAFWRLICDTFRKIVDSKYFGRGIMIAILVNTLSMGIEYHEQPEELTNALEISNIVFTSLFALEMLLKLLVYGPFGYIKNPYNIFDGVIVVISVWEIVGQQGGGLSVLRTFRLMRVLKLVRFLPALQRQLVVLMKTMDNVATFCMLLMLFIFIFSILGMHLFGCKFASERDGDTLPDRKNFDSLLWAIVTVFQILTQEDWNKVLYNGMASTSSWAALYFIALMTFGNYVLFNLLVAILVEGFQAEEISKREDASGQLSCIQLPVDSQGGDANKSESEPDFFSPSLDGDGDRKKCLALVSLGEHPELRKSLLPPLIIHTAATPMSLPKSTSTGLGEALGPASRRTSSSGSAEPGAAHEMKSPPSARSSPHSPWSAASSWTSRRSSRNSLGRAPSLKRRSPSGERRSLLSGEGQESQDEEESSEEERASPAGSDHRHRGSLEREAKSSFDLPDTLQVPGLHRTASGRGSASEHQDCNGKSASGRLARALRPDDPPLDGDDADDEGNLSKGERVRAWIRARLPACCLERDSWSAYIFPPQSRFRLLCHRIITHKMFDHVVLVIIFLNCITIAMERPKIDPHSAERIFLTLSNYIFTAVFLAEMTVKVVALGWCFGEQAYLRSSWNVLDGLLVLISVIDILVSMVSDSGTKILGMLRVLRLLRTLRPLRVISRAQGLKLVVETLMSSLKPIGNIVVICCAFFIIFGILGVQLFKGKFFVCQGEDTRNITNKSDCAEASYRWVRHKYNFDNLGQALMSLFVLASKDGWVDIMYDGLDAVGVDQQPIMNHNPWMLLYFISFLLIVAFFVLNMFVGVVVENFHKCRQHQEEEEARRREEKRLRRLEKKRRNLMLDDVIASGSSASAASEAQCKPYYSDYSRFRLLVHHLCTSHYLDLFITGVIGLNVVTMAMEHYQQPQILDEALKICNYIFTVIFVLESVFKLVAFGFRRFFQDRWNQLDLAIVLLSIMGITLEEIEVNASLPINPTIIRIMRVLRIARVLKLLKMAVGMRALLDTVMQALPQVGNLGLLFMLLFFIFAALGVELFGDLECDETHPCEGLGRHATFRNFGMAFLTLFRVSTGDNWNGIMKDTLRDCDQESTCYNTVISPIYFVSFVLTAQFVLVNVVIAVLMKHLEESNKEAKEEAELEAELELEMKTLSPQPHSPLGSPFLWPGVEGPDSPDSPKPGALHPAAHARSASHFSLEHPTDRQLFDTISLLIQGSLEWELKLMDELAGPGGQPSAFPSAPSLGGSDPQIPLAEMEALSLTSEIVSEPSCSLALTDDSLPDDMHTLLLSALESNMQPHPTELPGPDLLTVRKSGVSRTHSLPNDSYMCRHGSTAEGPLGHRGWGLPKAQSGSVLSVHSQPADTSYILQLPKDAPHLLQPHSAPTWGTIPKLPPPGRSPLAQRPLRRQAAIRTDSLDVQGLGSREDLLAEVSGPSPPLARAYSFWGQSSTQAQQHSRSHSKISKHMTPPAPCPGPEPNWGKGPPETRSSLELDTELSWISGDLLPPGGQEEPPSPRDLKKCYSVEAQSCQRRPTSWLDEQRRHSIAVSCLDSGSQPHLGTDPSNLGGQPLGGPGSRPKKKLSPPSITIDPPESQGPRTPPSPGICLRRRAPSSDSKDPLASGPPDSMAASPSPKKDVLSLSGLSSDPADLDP
Experimental: At 12-24 hours before the assay for T-type calcium channel activity, cells of HEK293 cell line (α1G cell line: KCTC 10519BP, GenBank, Korea Research Institute of Bioscience and Biotechnology) which stably express α1G T-type calcium channel and Kir2.1, were sub-cultured in a poly-L-lysine (0.05 mg/ml) treated 96-well plate with the density of 4×10^4 per a well using a 96-well cell dispenser (Titertek). On the day of assay, the 96-well plate to which the cells were attached were washed three times with a HEPES buffer solution (unit mM: 150 NaCl, 5 KCl, 1 MgCl2, 2 CaCl2, 10 HEPES, 10 glucose, pH 7.4) using a 96-well plate automatic washing device (Bio Tek), and then reacted with a HEPES buffer solution containing 5 μM fluo-3/AM and 0.001% (w/v) Pluronic F-127 at room temperature for 1 hour, to label with fluorescent dye, and then further washed twice with the HEPES buffer solution. Thereafter, at 10 minutes before the measurement using a FDSS6000 device, a washing with a HEPES buffer solution containing 10 mM CaCl2 was conducted once more, and the final volume was adjusted to 81 μl. Besides the above 96-well plate containing the cells, additional two 96-well drug plates were provided, in which the 96-well plates contained KCl (final concentration: 75 mM) for activating T-type calcium channel and a blocker drug, respectively.
Since most of cell-based HTS (High throughput screening) devices are equipped with a liquid application system for drug injection, but have no liquid sucking system, the blocker drug to be tested and KCl were respectively provided at the five-times higher concentration in 10 mM CaCl2 HEPES buffer solution at the amount of 27 μl, diluted five-times at the final cell plate volume of 135 μl, and then used in this test. In this Experimental Example, therefore, FDSS6000 (Hamamatsu Photonics) was used as an alternative to HTS device.
Specific FDSS6000 measurement conditions are as follows: After recording the reference value of 20 seconds, the change of intracellular calcium concentration which induced by pre-treatment of the drug (the prepared […]) for 75 seconds followed by administration of KCl was measured, in which the percentage (%) inhibition effect of the test drug was determined, through estimating the area of ratio value of 340/380 in the control without treatment of the test drug as 100%. As a reference drug, 10 μM of mibefradil was always used.
For accurate calcium-imagination, the light sources of 4 xenon lamps in FDSS6000 were radiated to make the cells exposed selectively to the excitation wavelength (340 nm and 380 nm) by computer-controlled filter wheel. Data was obtained at interval of each 1.23 second. The emitter fluorescence light inflow through a 515 nm long-pass filter was obtained as an average 340/380 ratio value for each well in the 96-wells by a cooled CCD camera and digital fluorescence analyzer in the device. All image data and analysis were obtained by using a FDSS6000-exclusive program provided by Hamamatsu Photonics, as described above.

SMILES	inhibition at 10 µM (TREK-1 channel)	inhibition at 101 µM (TREK-1 channel)	inhibition [1]
Cc1ccc(CNC(=O)CN2CCN(C[C@H](O)COc3ccc(C)cc3)CC2)cc1 [KKRE10199, (S)-2-(4-(2-hydroxy-3-(p-tolyloxy)propyl)piperazin-1-yl)-N-(4-methylbenzyl)acetamide]		11 ± 2.58%	33.9%
O=C(CN1CCN(C[C@@H](O)COc2ccc(C(F)(F)F)cc2)CC1)NC1CCCCC1 [KKRE10176, (R)-N-cyclohexyl-2-(4-(2-hydroxy-3-(4-(trifluoromethyl)phenoxy)propyl)piperazin-1-yl)acetamide]		33.5 ± 5.67%	43.9%
Cc1ccc(OC[C@@H](O)CN2CCN(CC(=O)NCc3ccccc3)CC2)cc1 [KKRE10197, (S)-N-benzyl-2-(4-(2-hydroxy-3-(p-tolyloxy)propyl)piperazin-1-yl)acetamide]		13.5 ± 3.9%	27.1%
O[C@H](COc1ccc(C(F)(F)F)cc1)CN1CCC(N2CCOCC2)CC1 [KKRE10187, (S)-1-(4-morpholinopiperidin-1-yl)-3-(4-(trifluoromethyl)phenoxy)propan-2-ol]		49.2 ± 6.75%	10.1%
O[C@H](COc1ccc(F)cc1)CN1CCC(N2CCCCC2)CC1 [KKRE10159, (S)-1-(1,4′-bipiperidin-1′-yl)-3-(4-fluorophenoxy)propan-2-ol]		13.4 ± 5.78%	6.37%
O[C@@H](COc1ccc(F)cc1)CN1CCC(N2CCCC2)CC1 [KKRE10160, (R)-1-(4-fluorophenoxy)-3-(4-(pyrrolidin-1-yl)piperidin-1-yl)propan-2-ol]		4.13 ± 4.43%	0.31%
O[C@@H](COc1ccc(F)cc1)CN1CCC(N2CCOCC2)CC1 [KKRE10156, (R)-1-(4-fluorophenoxy)-3-(4-morpholinopiperidin-1-yl)propan-2-ol]		16.4 ± 5.65%	5.31%
OC(COc1ccc(F)cc1)CN1CCN(Cc2nccn2Cc2ccccc2)CC1 (stereo in doubt) [KKRE10154, (R)-1-(4-((1-benzyl-1H-imidazol-2-yl)methyl)piperazin-1-yl)-3-(4-fluorophenoxy)propan-2-ol]		26.5 ± 3.97%	39.9%
Cc1ccc(CNC(=O)CN2CCN(C[C@@H](O)COc3ccc(C)cc3)CC2)cc1 [KKRE10198, (R)-2-(4-(2-hydroxy-3-(p-tolyloxy)propyl)piperazin-1-yl)-N-(4-methylbenzyl)acetamide]	29.9%	29.9 ± 3.9%	28.6%
O[C@@H](COc1ccc(C(F)(F)F)cc1)CN1CCC(N2CCOCC2)CC1 [KKRE10182, (R)-1-(4-morpholinopiperidin-1-yl)-3-(4-(trifluoromethyl)phenoxy)propan-2-ol]		46.6 ± 6.25%	12.5%
O[C@@H](COc1ccc(F)cc1)CN1CCC(F)(F)CC1 [KKRE10178, (R)-1-(4,4-difluoropiperidin-1-yl)-3-(4-fluorophenoxy)propan-2-ol]		66 ± 4.05%	37.6%

Further lines, results first:

inhibition at 10 µM (TREK-1 channel)	inhibition at 101 µM (TREK-1 channel)	inhibition [1]	SMILES
38%	38 ± 6.42%	17%	O=C(CN1CCN(C[C@H](O)COc2ccccc2)CC1)NCc1ccccc1 [KKRE10203, (S)-N-benzyl-2-(4-(2-hydroxy-3-phenoxypropyl)piperazin-1-yl)acetamide]
	78.1 ± 2.95%	60%	CC(C)Cc1cc(CNC(=O)CN2CCN(C[C@H](O)COc3ccc(F)cc3)CC2)nn1-c1cc(Cl)cc(Cl)c1 [KKRE10230, (S)-N-((1-(3,5-Dichlorophenyl)-5-isobutyl-1H-pyrazol-3-yl)methyl)-2-(4-(3-(4-fluorophenoxy)-2-hydroxypropyl)piperazin-1-yl)acetamide]
30.9%	30.9 ± 3.86%	43.7%	Cc1ccc(OC[C@H](O)CN2CCN(CC(=O)NCc3ccc(C(F)(F)F)cc3)CC2)cc1 [KKRE10200, (R)-2-(4-(2-hydroxy-3-(p-tolyloxy)propyl)piperazin-1-yl)-N-(4-(trifluoromethyl)benzyl)acetamide]
	87.6 ± 2.43%	63.4%	CC(C)Cc1cc(CNC(=O)CN2CCN(C[C@@H](O)COc3ccc(F)cc3)CC2)nn1-c1cc(Cl)cc(Cl)c1 [KKRE10223, (R)-N-((1-(3,5-Dichlorophenyl)-5-isobutyl-1H-pyrazol-3-yl)methyl)-2-(4-(3-(4-fluorophenoxy)-2-hydroxypropyl)piperazin-1-yl)acetamide]
	37.5 ± 5.31%	77.5%	CC(C)Cc1cc(CNC(=O)CN2CCN(C[C@H](O)COc3ccc(F)cc3)CC2)nn1-c1ccccc1 [KKRE10214, (S)-2-(4-(3-(4-Fluorophenoxy)-2-hydroxypropyl)piperazin-1-yl)-N-((5-isobutyl-1-phenyl-1H-pyrazol-3-yl)methyl)acetamide]
	18.8 ± 7.78%	78.8%	CC(C)Cc1cc(CNC(=O)CN2CCN(C[C@@H](O)COc3ccc(F)cc3)CC2)nn1-c1ccc(F)cc1 [KKRE10226, (R)-2-(4-(3-(4-Fluorophenoxy)-2-hydroxypropyl)piperazin-1-yl)-N-((1-(4-fluorophenyl)-5-isobutyl-1H-pyrazol-3-yl)methyl)acetamide]
	13.1 ± 6.19%	81.1%	Cc1ccccc1-n1nc(CNC(=O)CN2CCN(C[C@@H](O)COc3ccc(F)cc3)CC2)cc1CC(C)C [KKRE10225, (R)-2-(4-(3-(4-Fluorophenoxy)-2-hydroxypropyl)piperazin-1-yl)-N-((5-isobutyl-1-o-tolyl-1H-pyrazol-3-yl)methyl)acetamide]
	0.84 ± 1.76%	21.4%	O=C(CN1CCN(C[C@@H](O)COc2ccccc2)CC1)NCc1ccccc1 [KKRE10202, (R)-N-benzyl-2-(4-(2-hydroxy-3-phenoxypropyl)piperazin-1-yl)acetamide]
